Eight compounds from patent US20260028352A1, “MACROCYCLIC IMIDAZO [1,2-B] PYRIDAZINE DERIVATIVE, PREPARATION METHOD THEREFOR, AND USE THEREOF” (SUZHOU LANGRUI BIOPHARMACEUTICAL CO., LTD., priority 2022, published 2026) can be followed below.

In one test the target is TRKA^WT kinase (Homo sapiens (Human), UniProt P04629). The test is described as follows: Inhibitory activity against TRKA WT kinase (Caliper mobility shift). The conditions noted are these: in vitro kinase assay. The class given is biochemical. The procedure, abridged:
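Kinase preincubated 10 min at room temperature with compound (10-point 3-fold series from 1000 nM), then reaction started with ATP and Kinase Substrate 22. Substrate conversion read by Caliper mobility shift; IC50 from variable-slope log(inhibitor)–response fit of % inhibition versus no-enzyme and no-compound controls.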

The target of another test is TRKA^F589L kinase (Homo sapiens (Human), UniProt P04629, F589L). Nature of the test: Inhibitory activity against TRKA(F589L) kinase (Caliper mobility shift). The class given is biochemical. The conditions noted are these: in vitro kinase assay. As for the experimental part:
Kinase Assay Process: 1× Kinase buffer was prepared. […] The compounds were serially diluted into 10 concentrations ([…], 0.15, and 0.05 nM) using a Precision 3-fold dilution method. By using the Echo550 liquid handler, 250 nL of the 100-fold final concentration compound was transferred to an OptiPlate-384F plate. a 2.5× final concentration kinase solution was prepared using 1× Kinase buffer. 10 μL of the 2.5× final concentration kinase solution was added to the compound wells and the positive control wells, and 10 μL of 1× Kinase buffer was added to the negative control wells. The plate was centrifuged at 1000 rpm for 30 seconds, vortexed for mixing, and then incubated at room temperature for 10 minutes. A mixture of 5/3× final concentration of ATP and Kinase Substrate 22 was prepared using 1× Kinase buffer. 15 μL of the mixture of the 5/3× final concentration ATP and the substrate was added to initiate the reaction, the 384-well plate was centrifuged at 1000 rpm for 30 seconds, vortexed for mixing, and incubated at room temperature for the required time. 30 μL of the termination solution was added to stop the kinase reaction, the plate was centrifuged at 1000 rpm for 30 seconds, and vortexed for mixing. The conversion rate was measured using the Caliper EZ Reader.
Data Analysis: the inhibition rate was calculated as follows:
% Inhibition=(Conversion %_max−conversion %_sample)÷(Conversion %_max−conversion %_min)×100
Conversion %_sample is the conversion rate reading for the sample; Conversion %_min is the average value of the negative control wells, representing the conversion rate for wells without enzyme activity: Conversion %_max is the average value of the positive control wells, representing the conversion rate for wells without compound inhibition. A dose-response curve was fitted using the log concentration of the compound as the X-axis and the percentage inhibition as the Y-axis. The log(inhibitor) vs. response-variable slope of the GraphPad Prism 5 software was used to fit the dose-response curve, and the IC50 value for each compound was obtained. The calculation formula is:
Y=Bottom+(Top−Bottom)/(1+10^((Log IC50−X)*HillSlope)).
wherein X represents the concentration of the compound to be tested; Y represents the inhibition rate at the concentration X: Top refers to the maximum response: Bottom refers to the baseline response; HillSlope refers to the slope of the curve (i.e., the gradient).

In test [1] the test system is Ba/F3-TPM3-NTRK1-G667C cells. The test is described as follows: Growth inhibition of Ba/F3-TPM3-NTRK1-G667C cells (Cell Titer-Glo). The class given is cell-based. The conditions noted are these: 72 hours, CTG; read-out: inhibitory activity IC50 Ba/F3-TPM3-NTRK1-G667C. Put shortly: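 Ba/F3 cells were exposed for 72 hours to serially DMSO-diluted compound at a top final concentration of 10 μM. Viability was read by Cell Titer-Glo luminescence after the plate equilibrated 30 min at room temperature and was then shaken 1 hour in the dark at room temperature.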

The subject of test [2] is Ba/F3-TPM3-NTRK1-G595R cells. The test is described as follows: Growth inhibition of Ba/F3-TPM3-NTRK1-G595R cells (Cell Titer-Glo). The class given is cell-based. The conditions noted are these: 72 hours, CTG; read-out: inhibitory activity IC50 Ba/F3-TPM3-NTRK1-G595R. As for the experimental part:
(§1) Then the solutions were subjected to a gradient dilution with DMSO: a clean, sterile V-bottom 96-well microplate was placed in the biological safety cabinet. First, 4 μL of DMSO was added to well B2 and 10 μL of DMSO was added to wells B3-B11 respectively; Next, 6 μL of the 10 mM solution was added to well B2. The microplate was pipetted up and down 10 times for mixing. […] Mixing was performed by pipetting up and down 10 times. The solution was diluted in order until well B10. only DMSO was added to well B11 (no compound).
(§2) 6× Compound Solution Preparation (6-fold dilution, × represents dilution factor): (Initial final concentration: 10 μM), a clean, sterile V-bottom 96-well microplate was placed in the biological safety cabinet. 99 μL of cell culture medium was added to each well from B2 to G11. By using a 12-channel pipettor, 1 μL of the compound solution prepared in the previous step was added into the corresponding wells. The solutions were pipetted up and down 10 times to mix the solutions. The highest concentration of compound in this step was 60 μM.
(§3) Treatment of Cells: the above-prepared cell culture plate was taken out of the incubator. 20 μL of compound solution from each well was added to the corresponding cell culture wells. The lowest pipetting speed was used and touching the bottom of the plate was avoided. The culture plate was gently shaked to mix the compound solution, then the plate was returned to the incubator for further culture for 72 hours.
(§4) The highest treatment concentration of the compound was 10 μM. After 72 hours of treatment, the Cell Titer-Glo (CTG) assay was performed. First, the cell culture plate was removed from the CO2 incubator and allowed to stand at room temperature for 30 minutes to ensure uniform temperature of the plate. The pre-prepared Cell Titer-Glo reagent (following the manufacturer's instructions) was taken and allowed to stand at room temperature to thaw. 60 μL of Cell Titer-Glo reagent was added to each well containing cells. The cells were incubated on a horizontal shaker in a dark place at 225 rpm for 1 hour at room temperature. Then, a Tecan Spark microplate reader was used to read the plate using chemiluminescence according to the manufacturer's instructions.

Test [3] deals with Ba/F3-TPM3-NTRK1-WT cells. The test is described as follows: Growth inhibition of Ba/F3-TPM3-NTRK1-WT cells (Cell Titer-Glo). The class given is cell-based. The conditions noted are these: 72 hours, CTG; read-out: inhibitory activity IC50 Ba/F3-TPM3-NTRK1-WT. On the procedure:
as §1, §2, §3, §4
(In general: In ATP-based viability assays light output follows the ATP content of the culture.)

Bounds are passed on as bounds.

Sequence of TRKA^F589L kinase (P04629 33-796 F589L): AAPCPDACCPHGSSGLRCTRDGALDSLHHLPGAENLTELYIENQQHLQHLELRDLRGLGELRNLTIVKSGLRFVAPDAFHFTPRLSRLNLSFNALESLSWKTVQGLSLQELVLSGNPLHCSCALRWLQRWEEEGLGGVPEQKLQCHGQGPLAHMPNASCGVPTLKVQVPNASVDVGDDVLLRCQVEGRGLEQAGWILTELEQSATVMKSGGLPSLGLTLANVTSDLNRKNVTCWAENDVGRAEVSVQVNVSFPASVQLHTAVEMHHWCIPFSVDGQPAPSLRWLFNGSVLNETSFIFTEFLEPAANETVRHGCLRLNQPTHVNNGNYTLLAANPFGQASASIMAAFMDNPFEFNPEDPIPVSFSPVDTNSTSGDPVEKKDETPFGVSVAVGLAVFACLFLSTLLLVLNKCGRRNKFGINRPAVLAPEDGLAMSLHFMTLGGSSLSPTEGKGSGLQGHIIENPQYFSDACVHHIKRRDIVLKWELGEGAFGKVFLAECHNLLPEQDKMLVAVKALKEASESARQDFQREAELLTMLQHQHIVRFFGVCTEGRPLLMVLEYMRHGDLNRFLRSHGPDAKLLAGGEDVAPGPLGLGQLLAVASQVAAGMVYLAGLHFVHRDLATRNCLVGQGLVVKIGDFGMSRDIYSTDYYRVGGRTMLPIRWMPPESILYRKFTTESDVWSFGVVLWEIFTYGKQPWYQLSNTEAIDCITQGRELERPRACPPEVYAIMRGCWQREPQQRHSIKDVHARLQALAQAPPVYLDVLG
Sequence of TRKA^WT kinase (P04629 33-796): as the sequence (P04629 33-796 F589L) above, with L557F counted along it

In the case of `Fc1ccc2c(c1)[C@H]1CCCN1c1ccc3ncc(n3n1)-c1cc(ccn1)CO2` [Example I-49, (14bR,E)-13-fluoro-14b,15,16,17-tetrahydro-9H-1,19-etheno-4,8-(metheno)benzo[b]imidazo[1,5-h]pyrrolo[2,1-d][1]oxa[5,7,8,11]tetraazacyclopentadecine], the results for the IC50 (at TRKA^WT kinase; at TRKA^F589L kinase; in test [1]) were less than 3 nM, less than 5 nM and less than 100 nM, respectively.

For the compound `Fc1ccc2c(c1)[C@H]1CCCN1c1ccc3ncc(n3n1)-c1cc(ncn1)CCO2` [Example I-69, (3^2R,E)-4^5-fluoro-5-oxa-2(3,6)-imidazo[1,2-b]pyridazina-1(4,6)-pyrimidina-3(1,2)-pyrrolidina-4(1,2)-benzenacycloheptaphane], the IC50 at TRKA^WT kinase was less than 3 nM; on TRKA^F589L kinase, less than 5 nM; in test [1], less than 100 nM.

On to `Fc1cnc2c(c1)[C@H]1C[C@H](F)CN1c1ccc3ncc(n3n1)-c1nccc(n1)CCO2` [Example I-88, (3^2R,3^4S,E)-3^4,4^5-difluoro-5-oxa-2(3,6)-imidazo[1,2-b]pyridazina-1(2,4)-pyrimidina-4(3,2)-pyridina-3(1,2)-pyrrolidinacycloheptaphane], for which the IC50 was less than 3 nM on TRKA^WT kinase; less than 5 nM on TRKA^F589L kinase; 10.1 nM in test [1]; 1.7 nM in test [2]; 0.12 nM in test [3].

With `C[C@H]1Nc2ccc3ncc(n3n2)-c2cc(cnn2)CCOc2ncc(F)cc21` [Example I-89, (4R,E)-5^5-fluoro-4-methyl-6-oxa-3-aza-2(3,6)-imidazo[1,2-b]pyridazina-1(3,5)-pyridazina-5(3,2)-pyridinacyclooctaphane], the IC50 at TRKA^WT kinase is less than 3 nM; at TRKA^F589L kinase it was less than 5 nM; in test [1] it was less than 100 nM.

With `C[C@H]1Cc2ccnc(n2)-c2cnc3ccc(nn23)N2CCC[C@@H]2c2cc(F)cnc2O1` [Example I-95, (32R,6S,E)-4-fluoro-6-methyl-5-oxa-2(3,6)-imidazo[1,2-b]pyridazina-1(2,4)-pyrimidina-4(3,2)-pyridina-3(1,2)-pyrrolidinacycloheptaphane], the IC50 on TRKA^WT kinase is less than 3 nM; on TRKA^F589L kinase, less than 5 nM; in test [1] it was less than 100 nM.

Turning to `C[C@@H]1Cc2cc(ncn2)-c2cnc3ccc(nn23)N2CCC[C@@H]2c2cc(F)ccc2O1` [Example I-97, (3^2R,6R,E)-4^5-fluoro-6-methyl-5-oxa-2(3,6)-imidazo[1,2-b]pyridazina-1(4,6)-pyrimidina-3(1,2)-pyrrolidina-4(1,2)-benzenacycloheptaphane], the IC50 at TRKA^WT kinase was less than 3 nM; at TRKA^F589L kinase it was less than 5 nM; in test [1], less than 100 nM.

Consider `C[C@@H]1Cc2cc(ncn2)-c2cnc3ccc(nn23)N2C[C@@H](F)C[C@@H]2c2cc(F)ccc2O1` [Example I-98, (3^2R,3^4S,6R,E)-3^4,4^5-difluoro-6-methyl-5-oxa-2(3,6)-imidazo[1,2-b]pyridazina-1(4,6)-pyrimidina-3(1,2)-pyrrolidina-4(1,2)-benzenacycloheptaphane], for which the IC50 on TRKA^WT kinase was less than 3 nM; at TRKA^F589L kinase, less than 5 nM; in test [1], 16.3 nM; in test [2] it was 1.5 nM; in test [3], 0.22 nM.

On to “(R)-(E)-4-methyl-6-oxa-3-aza-2(3,6)-imidazo[1,2-b]pyridazina-1(4,6)-pyrimidina-5(1,2)-benzenacyclooctaphane [Example I-32]”, for which the IC50 at TRKA^WT kinase is less than 3 nM; on TRKA^F589L kinase it was less than 5 nM; in test [1], less than 100 nM.
